Drawing on patent US12655142B2 (Merck Patent GmbH, priority 2019, dated 2026), this text covers IC50 for 22 compounds.

One test has as its target T1, c-Kit(V654A) (Homo sapiens, UniProt P10721, V654A).
T1 construct: recombinant human c-Kit, amino acids 544-end containing the V654A mutation; GST (N)
Description: c-Kit(V654A) assay (33P-ATP filter binding kinase assay). Type of test: biochemical. The note with it: recombinant human c-Kit aa 544-end V654A, ATP 200 μM. The protocol: c-Kit(V654A) (N-terminal GST-tagged, recombinant human c-Kit, amino acids 544-end containing the V654A mutation) is incubated with 8 mM MOPS pH 7.0, 0.2 mM EDTA, 250 μM GGMEDIYEFMGGKKK, 10 mM MgAcetate and [gamma-33P-ATP] (specific activity approx. 500 cpm/pmol, concentration 200 μM). The reaction is initiated by the addition of the MgATP mix. After incubation for 40 minutes at room temperature, the reaction is stopped by the addition of 3% phosphoric acid solution. 10 μL of the reaction is then spotted onto a P30 filtermat and washed three times for 5 minutes in 75 mM phosphoric acid and once in methanol prior to drying and scintillation counting.

Test [1] deals with T2, GIST430/654 cell line expressing mutated constitutively active cKIT receptor tyrosine kinase (Δ560-576 deletion and V654A point mutation) (Homo sapiens, UniProt P10721, DEL560-576/V654A).
T2 construct: endogenous in cells; host or cells: GIST430/654 cells
T2 sequence (P10721 with tags, fused parts or gaps DEL560-576/V654A): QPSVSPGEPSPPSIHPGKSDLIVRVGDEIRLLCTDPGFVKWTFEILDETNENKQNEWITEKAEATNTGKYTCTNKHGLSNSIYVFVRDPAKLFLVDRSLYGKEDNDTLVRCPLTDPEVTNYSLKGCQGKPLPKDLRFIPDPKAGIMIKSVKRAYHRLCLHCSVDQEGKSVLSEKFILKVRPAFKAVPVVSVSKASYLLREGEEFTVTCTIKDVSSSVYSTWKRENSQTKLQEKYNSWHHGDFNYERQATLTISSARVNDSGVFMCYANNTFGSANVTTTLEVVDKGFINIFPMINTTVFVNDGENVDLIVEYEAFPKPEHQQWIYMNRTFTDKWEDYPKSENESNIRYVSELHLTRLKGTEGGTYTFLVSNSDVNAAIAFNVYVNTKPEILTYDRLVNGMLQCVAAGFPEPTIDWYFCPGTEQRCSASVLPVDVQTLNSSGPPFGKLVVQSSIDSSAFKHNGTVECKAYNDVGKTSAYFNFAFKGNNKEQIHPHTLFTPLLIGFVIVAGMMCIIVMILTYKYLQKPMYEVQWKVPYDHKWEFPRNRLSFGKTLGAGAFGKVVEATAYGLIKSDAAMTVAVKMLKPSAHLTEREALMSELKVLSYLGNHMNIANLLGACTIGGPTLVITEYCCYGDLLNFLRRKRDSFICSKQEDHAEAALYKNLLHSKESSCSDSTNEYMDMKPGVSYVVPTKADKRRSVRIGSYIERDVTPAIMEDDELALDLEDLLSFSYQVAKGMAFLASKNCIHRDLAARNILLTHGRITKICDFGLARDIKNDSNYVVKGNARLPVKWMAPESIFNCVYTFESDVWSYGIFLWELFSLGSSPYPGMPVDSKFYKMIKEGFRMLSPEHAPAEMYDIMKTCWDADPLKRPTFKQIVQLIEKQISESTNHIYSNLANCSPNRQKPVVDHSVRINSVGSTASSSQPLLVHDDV
Description: Cellular cKIT autophosphorylation (phospho-Y307-cKIT, Luminex bead assay) in GIST430/654 cells. As to conditions: compounds 45 min, read-out: GIST 430/654 IC50. Format: cell-based. The protocol: Assay Principle for Cellular Testing of cKIT Mutant Inhibitors
The GIST430 cell line expressing constitutive active cKIT receptor tyrosine kinase (Δ560-576 deletion) and the Imatinib resistant GIST430/654 cell line expressing mutated constitutively active cKIT receptor tyrosine kinase (Δ560-576 deletion and V654A point mutation) were employed for assessing cellular potency of compounds. Cellular activity of mutant cKIT was determined by the degree of cKIT autophosphorylation at tyrosine 307 using a Luminex-based bead assay. GIST430 cells were plated with 22,000 cells per well of a 96-well plate in 100 μl medium (85% IMDM/15% FCS) and GIST430/654 cells were plated with 25,000 cells per well of a 96-well plate in 100 μl medium (85% IMDM/15% FCS supplemented with 100 nM Imatinib). At the following day compounds were added in a serial dilution for 45 min. Then, cells were lysed with 90 μl lysis buffer (20 mM Hepes pH 7.5, 200 mM NaCl, 1.5 mM MgCl2×6H2O, 0.4 mM EDTA, 1% Triton-X-100, 1% Phosphatase-Inhibitor II, 20 mM β-Glycerolphosphat, 0.1% Protease-Inhibitor Cocktail III, 0.01% Benzonase) and lysates were cleared by centrifugation through a 96-well filter plate (0.65 μm). Samples were incubated with Luminex-beads which were coupled with an anti-total cKIT antibody overnight at 4° C. under gentle agitation. For detection of phospho-Y307-cKIT a phosphospecific antibody and a species-specific PE-labeled secondary antibody were added. The amount of phospho-Y307-cKIT was determined in a Luminex 200 instrument measuring 100 events per well within 60 seconds.
Counts from samples treated with compounds were calculated as percent of control from solvent treated (0.3% DMSO) samples. Dose-response curves were fitted and IC50 values were determined using Genedata Screener software.

T1 sequence (P10721 544-976 V654A): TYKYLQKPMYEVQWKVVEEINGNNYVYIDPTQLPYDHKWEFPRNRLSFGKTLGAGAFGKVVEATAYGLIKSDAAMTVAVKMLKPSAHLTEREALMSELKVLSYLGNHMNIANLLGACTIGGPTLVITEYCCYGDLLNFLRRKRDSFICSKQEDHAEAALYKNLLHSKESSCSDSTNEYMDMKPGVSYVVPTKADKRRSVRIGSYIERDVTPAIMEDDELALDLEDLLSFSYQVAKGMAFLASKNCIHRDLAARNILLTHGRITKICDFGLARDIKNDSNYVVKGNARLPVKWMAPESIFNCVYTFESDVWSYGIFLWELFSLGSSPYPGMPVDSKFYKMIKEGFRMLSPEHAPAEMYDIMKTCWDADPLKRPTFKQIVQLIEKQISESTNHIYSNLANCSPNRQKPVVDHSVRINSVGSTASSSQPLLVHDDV

On to `COc1ccn2c(-c3cc(NCc4ccc(-c5ccccc5)cc4)ncn3)cnc2c1` [A3, N-({[1,1′-biphenyl]-4-yl}methyl)-6-{7-methoxyimidazo[1,2-a]pyridin-3-yl}pyrimidin-4-amine], for which the IC50 is 5.5 nM on c-Kit(V654A) and 2600 nM in test [1].

Take `CN1CCC(CCOc2ccn3c(-c4cc(NCc5ccc(-c6cnn(C)n6)cc5)ncn4)cnc3c2)CC1` [A130, (6-{7-[2-(1-methyl-piperidin-4-yl)-ethoxy]-imidazo[1,2-a]pyridin-3-yl}-pyrimidin-4-yl)-[4-(2-methyl-2H-[1,2,3]triazol-4-yl)-benzyl]-amine]: the IC50 was determined as 3.5 nM on c-Kit(V654A) and 40 nM in test [1].

Consider `CN1CCO[C@@H](COc2ccn3c(-c4cc(NCc5ccc(-c6cnn(C)n6)cc5)ncn4)cnc3c2)C1` [A121, {6-[7-((R)-4-methyl-morpholin-2-ylmethoxy)-imidazo[1,2-a]pyridin-3-yl]-pyrimidin-4-yl}-[4-(2-methyl-2H-[1,2,3]triazol-4-yl)-benzyl]-amine], for which the IC50 stood at 3.6 nM at c-Kit(V654A) and 34 nM in test [1].

Consider `COc1ccn2c(-c3cc(NCc4ccc(-c5cnn(C)c5)c(F)c4)ncn3)cnc2c1` [A29, N-{[3-fluoro-4-(1-methyl-1H-pyrazol-4-yl)phenyl]methyl}-6-{7-methoxyimidazo[1,2-a]pyridin-3-yl}pyrimidin-4-amine], for which the IC50 on c-Kit(V654A) is 15 nM; in test [1], 120 nM.

With `CN1CCO[C@H](COc2ccn3c(-c4cc(NCc5ccc(-c6cnn(C)c6)cc5)ncn4)cnc3c2)C1` [A118, {6-[7-((S)-4-methyl-morpholin-2-ylmethoxy)-imidazo[1,2-a]pyridin-3-yl]-pyrimidin-4-yl}-[4-(1-methyl-1H-pyrazol-4-yl)-benzyl]-amine], the IC50 amounted to 4.7 nM at c-Kit(V654A) and 40 nM in test [1].

In the case of `COc1ccn2c(-c3cc(NCc4cccc(-c5cnn(C)c5)c4)ncn3)cnc2c1` [A28, [6-(7-methoxy-imidazo[1,2-a]pyridin-3-yl)-pyrimidin-4-yl]-[3-(1-methyl-1H-pyrazol-4-yl)-benzyl]-amine], the IC50 was 35 nM at c-Kit(V654A) and 1400 nM in test [1].

Take `Cc1ccn2c(-c3cc(NCc4ccc(-c5cnn(C)c5)cc4)ncn3)cnc2c1` [A66, [6-(7-methyl-imidazo[1,2-a]pyridin-3-yl)-pyrimidin-4-yl]-[4-(1-methyl-1H-pyrazol-4-yl)-benzyl]-amine]: the IC50 was found to be 7.8 nM on c-Kit(V654A) and 190 nM in test [1].

As to `Cn1cc(-c2ccc(CNc3cc(-c4cnc5cc(OC6CCN(C7COC7)CC6)ccn45)ncn3)cc2)cn1` [A182, N-{[4-(1-methyl-1H-pyrazol-4-yl)phenyl]methyl}-6-(7-{[1-(oxetan-3-yl)piperidin-4-yl]oxy}imidazo[1,2-a]pyridin-3-yl)pyrimidin-4-amine], the IC50 on c-Kit(V654A) came out at 11 nM; in test [1], 92 nM.

Turning to `CN(C)CCOc1ccn2c(-c3cc(NCc4ccc(-c5cnn(C)c5)cc4)ncn3)cnc2c1` [A59, 6-{7-[2-(dimethylamino)ethoxy]imidazo[1,2-a]pyridin-3-yl}-N-{[4-(1-methyl-1H-pyrazol-4-yl)phenyl]methyl}pyrimidin-4-amine], the results for the IC50 (at c-Kit(V654A); in test [1]) were 11 nM and 82 nM, respectively.

In the case of `Cn1ncc(-c2ccc(CNc3cc(-c4cnc5cc(OCCCO)ccn45)ncn3)cc2)n1` [A134, 3-(3-{6-[4-(2-methyl-2H-[1,2,3]triazol-4-yl)-benzylamino]-pyrimidin-4-yl}-imidazo[1,2-a]pyridin-7-yloxy)-propan-1-ol], the IC50 on c-Kit(V654A) came to 4.6 nM; in test [1] it was 52 nM.

Take `COc1ccn2c(-c3cc(NCc4ccc(-c5cnn(C)c5CO)cc4)ncn3)cnc2c1` [A161, [4-(4-{[6-(7-methoxy-imidazo[1,2-a]pyridin-3-yl)-pyrimidin-4-ylamino]-methyl}-phenyl)-2-methyl-2H-pyrazol-3-yl]-methanol]: the IC50 on c-Kit(V654A) turned out to be 22 nM; in test [1], 180 nM.

In the case of `CN1CCN(CCOc2ccn3c(-c4cc(OCc5ccc(-c6cnn(C)c6)cc5)ncn4)cnc3c2)CC1` [A86, 7-[2-(4-methyl-piperazin-1-yl)-ethoxy]-3-{6-[4-(1-methyl-1H-pyrazol-4-yl)-benzyloxy]-pyrimidin-4-yl}-imidazo[1,2-a]pyridine], the IC50 on c-Kit(V654A) worked out at 5 nM; in test [1], 110 nM.

For `Cn1ncc(-c2ccc(CNc3cc(-c4cnc5cc(OCCCN6CC7(COC7)C6)ccn45)ncn3)cc2)n1` [A239, [4-(2-methyl-2H-[1,2,3]triazol-4-yl)-benzyl]-(6-{7-[3-(2-oxa-6-aza-spiro[3.3]hept-6-yl)-propoxy]-imidazo[1,2-a]pyridin-3-yl}-pyrimidin-4-yl)-amine], the IC50 on c-Kit(V654A) was 3.2 nM; in test [1] it was 94 nM.

On to `CC(COc1ccn2c(-c3cc(NCc4ccc(-c5cnn(C)n5)cc4)ncn3)cnc2c1)CN1CCCC1` (centres unmarked) [A227, {6-[7-(2-methyl-3-pyrrolidin-1-yl-propoxy)-imidazo[1,2-a]pyridin-3-yl]-pyrimidin-4-yl}-[4-(2-methyl-2H-[1,2,3]triazol-4-yl)-benzyl]-amine], for which the IC50 on c-Kit(V654A) is 3.3 nM; in test [1], 48 nM.

As to `Cn1cc(-c2ccc(CNc3cc(-c4cnc5cc([N+](=O)[O-])ccn45)ncn3)cc2)cn1` [A81, N-{[4-(1-methyl-1H-pyrazol-4-yl)phenyl]methyl}-6-{7-nitroimidazo[1,2-a]pyridin-3-yl}pyrimidin-4-amine], the IC50 on c-Kit(V654A) was 27 nM; in test [1], 970 nM.

For the compound `Cn1ncc(-c2ccc(CNc3cc(-c4cnc5cc(N6CCCC6)ccn45)ncn3)cc2)n1` [A232, [4-(2-methyl-2H-[1,2,3]triazol-4-yl)-benzyl]-[6-(7-pyrrolidin-1-yl-imidazo[1,2-a]pyridin-3-yl)-pyrimidin-4-yl]-amine], the values for the IC50 (on c-Kit(V654A); in test [1]) were 23 nM and 170 nM, respectively.

With `CN1CCOC[C@@H]1COc1ccn2c(-c3cc(NCc4ccc(-c5cnn(C)c5)cc4)ncn3)cnc2c1` [A124, N-{[4-(1-methyl-1H-pyrazol-4-yl)phenyl]methyl}-6-(7-{[(3R)-4-methylmorpholin-3-yl]methoxy}imidazo[1,2-a]pyridin-3-yl)pyrimidin-4-amine], the IC50 at c-Kit(V654A) came out at 7.4 nM; in test [1], 53 nM.

Turning to `COc1ccn2c(-c3cc(NCc4ccc(-c5cc(C)no5)cc4)ncn3)cnc2c1` [A52, [6-(7-methoxy-imidazo[1,2-a]pyridin-3-yl)-pyrimidin-4-yl]-[4-(3-methyl-isoxazol-5-yl)-benzyl]-amine], the IC50 on c-Kit(V654A) is 5.7 nM; in test [1] it was 150 nM.

For the compound `Cn1cc(-c2ccc(CNc3cc(-c4cnc5cc(OCCN6C[C@@H](F)[C@@H](F)C6)ccn45)ncn3)cc2)cn1` [A209, (6-{7-[2-((3S,4R)-3,4-difluoro-pyrrolidin-1-yl)-ethoxy]-imidazo[1,2-a]pyridin-3-yl}-pyrimidin-4-yl)-[4-(1-methyl-1H-pyrazol-4-yl)-benzyl]-amine], the values for the IC50 (at c-Kit(V654A); in test [1]) were 9.5 nM and 78 nM, respectively.

For `Cn1cc(-c2ccc(CNc3cc(-c4cnc5cc(OCCCS(C)(=O)=O)ccn45)ncn3)cc2)cn1` [A143, {6-[7-(3-methanesulfonyl-propoxy)-imidazo[1,2-a]pyridin-3-yl]-pyrimidin-4-yl}-[4-(1-methyl-1H-pyrazol-4-yl)-benzyl]-amine], the IC50 turned out to be 21 nM at c-Kit(V654A) and 380 nM in test [1].

As to `Cn1cc(-c2ccc(COc3cc(-c4cnc5cc(OCCN6CCC(F)(F)C6)ccn45)ncn3)cc2)cn1` [A90, 7-[2-(3,3-difluoro-pyrrolidin-1-yl)-ethoxy]-3-{6-[4-(1-methyl-1H-pyrazol-4-yl)-benzyloxy]-pyrimidin-4-yl}-imidazo[1,2-a]pyridine], the IC50 on c-Kit(V654A) came to 10 nM; in test [1] it was 260 nM.

For `c1cn(-c2ccc(CNc3cc(-c4cnc5cc(OCCN6CCCC6)ccn45)ncn3)cc2)nn1` [A70, {6-[7-(2-pyrrolidin-1-yl-ethoxy)-imidazo[1,2-a]pyridin-3-yl]-pyrimidin-4-yl}-(4-[1,2,3]triazol-1-yl-benzyl)-amine], the IC50 on c-Kit(V654A) was 21 nM; in test [1], 230 nM.
